The text below walks through data of patent US20110177179A1, “PREPARATION OF BOTANICAL EXTRACTS CONTAINING ABSORBABLE COMPONENTS USING PHARMACEUTICAL PLATFORM TECHNOLOGY” (SINOVEDA CANADA, INC., priority 2010, published 2011).

Like-named read-outs stand apart in the source and are kept apart here.

One data set deals with colonic bacteria. As to the kind of experiment: Metabolism by colonic (intestinal) bacteria, anaerobic incubation with fecal sample. In kind it is in vitro ADME, rat. The settings on record: for metabolism by colonic bacteria (change in level): Red clover methanolic extract, anaerobic, 37° C., up to 24 hours. Here is the method:
The effect of colonic bacteria on the stability of a methanolic extract of Red clover was evaluated. The procedures reported by Schneider et al. (Schneider, Simmering et al. 2000) was used to prepare a fecal sample collected from a rat. The extract was incubated anaerobically at 37° C. for a period of 24 hours.

A further data set has as its system MDCK cells. As to the kind of experiment: Permeability of extract components through MDCK cell monolayer. In kind it is in vitro ADME. The settings on record: for permeability versus molecular weight trend: Rhodiola 80% methanol extract. Here is the method:
Both CaCo-2 and MDCK cells were purchased form American Type Culture Collection (ATCC) and cultured with Dulbecco Modified Eagle's Media (DMEM) supplemented with 10% fetal bovine serum, 1% non-essential amino acids, and 10 mM HEPES. All tissue culture media and supplements were purchased from Sigma-Aldrich. Following Yee's method (Yee 1997), CaCo-2 cells were seeded into transwell culture dishes and cultured for 21 days. Lin et al's. (2003) method was used to seed and culture MDCK cells; the culturing period was three days.
(§1) Two natural products: Rhodiola rosea and Red yeast rice were individually extracted using the three solvents described in Example 1. Each extract was dissolved in Hanks' balanced salt buffer supplemented with 20 mM HEPES at 1 mg/ml. Permeability studies were carried out using MDCK cells and samples were taken from the apical side at 0 minute and 60 minutes and from the basal side at 60 minutes after incubation. Samples were diluted with a 1:1 mixture of methanol and acetonitrile prior to analysis using a LC/MS system. Permeability coefficient number was calculated as follows: Peff (cm/sec)=(Vr/(A*Cs))*(Cf/t), where Vr is the receiver side volume (basal; ml), A is the area of monolayer (cm^2), Cs is the starting concentration at the donor side (μM), Cf is the concentration at the receiver side at time t (μM), and t is the incubation time (seconds).
as §1, with “The extracts of” for “Two natural products: Rhodiola rosea and”, “clover” for “yeast rice”, “individually” for “individually extracted using the three solvents described in Example 1. Each extract was”, “(cm/sec)=(Vr/(A*C,))*(Cf/t),” for “(cm/sec)=(Vr/(A*Cs))*(Cf/t),”

The conditions of data set [1]: major component of Chuanxiong; Yan, Ko et al. 2008; cited from earlier work.
The conditions of data set [2]: Hollman, van Trijp et al. 1997; cited from earlier work.
Setting [3] is: after 6 hours of incubation with colonic bacteria.
Where [4] appears, read: Rhodiola rosea extracts, 1 mg/ml, 60 minutes, p<0.05.

As to `COc1ccc(-c2coc3cc(O)ccc3c2=O)cc1` [formononetin], the “metabolism by colonic bacteria (change in level)” value in the data set with colonic bacteria is “increase”. The “species left in the incubate” value in the data set on colonic bacteria (setting [3]) is reported as “major species left”.

Consider `OC[C@@H]1O[C@@H](OC[C@H]2O[C@@H](OC/C=C/c3ccccc3)[C@H](O)[C@@H](O)[C@@H]2O)[C@H](O)[C@H]1O` [rosarin], for which the “permeability versus molecular weight trend” value in the data set on MDCK cells (1 mg/ml, 60 minutes) was “deviated significantly from the trend”. The “permeability, 80% methanol extract as opposed to water extract” value (from here on “permeability, 80% methanol extract”) in the data set on MDCK cells (setting [4]) is “significantly different”.

`CC[C@H](C)C(=O)O[C@H]1C[C@@H](C)C=C2C=C[C@H](C)[C@H](CC[C@@H]3C[C@@H](O)CC(=O)O3)[C@H]21` [monacolin K]: the “permeability, comparison of water, 80% methanol and hexane extracts” value with MDCK cells (Red yeast rice extracts, 1 mg/ml, 60 minutes) is reported as “highest in the hexane extract”.

hydroxyrosavin: the “permeability, 80% methanol extract” value with MDCK cells (MDCK) is given as “significantly different”.

`Oc1ccc([C@H]2COc3cc(O)ccc3C2)cc1` [Equol]: in the data set on colonic bacteria, the “metabolism by colonic bacteria (change in level)” value was “appeared shortly after incubation”. Besides, the “species left in the incubate” value in the data set with colonic bacteria (setting [3]) is listed as “major species left”.

As for `CCC/C=C1\OC(=O)C2=C1CCC=C2` [z-ligustilide], the bioavailability entry in data set [1] is on record as “less than 3%”.

Consider `O[C@@H]1[C@@H](O)[C@H](OC/C=C/c2ccccc2)O[C@H](CO[C@@H]2OC[C@H](O)[C@H](O)[C@H]2O)[C@H]1O` [rosavin], for which the “permeability versus molecular weight trend” value with MDCK cells (1 mg/ml, 60 minutes) is reported as “deviated significantly from the trend”. Also, the “permeability, 80% methanol extract” value in the data set on MDCK cells (setting [4]) is given as “significantly different”.

Turning to `C[C@@H]1O[C@@H](OC[C@H]2O[C@@H](Oc3c(-c4ccc(O)c(O)c4)oc4cc(O)cc(O)c4c3=O)[C@H](O)[C@@H](O)[C@@H]2O)[C@H](O)[C@H](O)[C@H]1O` [Rutin], in data set [2], the “detection in the blood stream” value is “not detected”.

Take `COc1ccc(-c2coc3cc(O)cc(O)c3c2=O)cc1` [biochanin A]: the “species left in the incubate” value with colonic bacteria is listed as “major species left”.
